Patent US10428080B2, “TBK/IKK inhibitor compounds and uses thereof” (Merck Patent GmbH, priority 2015, dated 2019)
pIC50: −log10 of the molar value. Counter-ions that a name gives are not always drawn.

Tests used:
[1] = molecular target: T1, TBK1 (Homo sapiens, UniProt Q9UHD2); test: TBK Biochemical Assay; settings: read-out: TBK1 IC50
T1 sequence (Q9UHD2 1-729): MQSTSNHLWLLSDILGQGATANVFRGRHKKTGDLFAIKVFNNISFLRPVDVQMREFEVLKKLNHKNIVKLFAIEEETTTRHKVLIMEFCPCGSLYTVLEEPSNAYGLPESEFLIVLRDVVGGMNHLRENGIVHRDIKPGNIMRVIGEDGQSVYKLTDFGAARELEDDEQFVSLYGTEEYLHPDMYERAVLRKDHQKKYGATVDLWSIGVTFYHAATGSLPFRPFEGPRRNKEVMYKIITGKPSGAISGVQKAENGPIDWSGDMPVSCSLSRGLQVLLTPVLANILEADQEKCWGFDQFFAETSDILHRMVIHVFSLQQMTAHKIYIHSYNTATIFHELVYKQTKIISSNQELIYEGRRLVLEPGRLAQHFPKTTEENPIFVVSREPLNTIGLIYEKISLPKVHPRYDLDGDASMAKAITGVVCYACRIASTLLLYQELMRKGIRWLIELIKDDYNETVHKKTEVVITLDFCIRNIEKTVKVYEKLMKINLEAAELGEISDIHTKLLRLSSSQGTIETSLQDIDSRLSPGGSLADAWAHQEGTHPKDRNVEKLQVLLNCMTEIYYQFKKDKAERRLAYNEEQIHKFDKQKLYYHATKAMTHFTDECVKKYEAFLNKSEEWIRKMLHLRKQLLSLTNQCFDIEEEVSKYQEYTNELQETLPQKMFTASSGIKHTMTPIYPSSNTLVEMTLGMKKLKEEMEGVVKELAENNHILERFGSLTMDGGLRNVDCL
Outline: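 Caliper LabChip mobility-shift readout of substrate and product after 90 min of TBK1 reaction at 25° C and stop-buffer addition. Compounds tested in 1:4 serial dilution over 10 points from 30 uM final at 1% DMSO; staurosporine 10 uM final defines full inhibition.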

[2] = molecular target: T2, IKKε (Homo sapiens, UniProt Q14164); test: IKKe Biochemical Assay; settings: read-out: IKKε IC50
T2 sequence (Q14164 1-716): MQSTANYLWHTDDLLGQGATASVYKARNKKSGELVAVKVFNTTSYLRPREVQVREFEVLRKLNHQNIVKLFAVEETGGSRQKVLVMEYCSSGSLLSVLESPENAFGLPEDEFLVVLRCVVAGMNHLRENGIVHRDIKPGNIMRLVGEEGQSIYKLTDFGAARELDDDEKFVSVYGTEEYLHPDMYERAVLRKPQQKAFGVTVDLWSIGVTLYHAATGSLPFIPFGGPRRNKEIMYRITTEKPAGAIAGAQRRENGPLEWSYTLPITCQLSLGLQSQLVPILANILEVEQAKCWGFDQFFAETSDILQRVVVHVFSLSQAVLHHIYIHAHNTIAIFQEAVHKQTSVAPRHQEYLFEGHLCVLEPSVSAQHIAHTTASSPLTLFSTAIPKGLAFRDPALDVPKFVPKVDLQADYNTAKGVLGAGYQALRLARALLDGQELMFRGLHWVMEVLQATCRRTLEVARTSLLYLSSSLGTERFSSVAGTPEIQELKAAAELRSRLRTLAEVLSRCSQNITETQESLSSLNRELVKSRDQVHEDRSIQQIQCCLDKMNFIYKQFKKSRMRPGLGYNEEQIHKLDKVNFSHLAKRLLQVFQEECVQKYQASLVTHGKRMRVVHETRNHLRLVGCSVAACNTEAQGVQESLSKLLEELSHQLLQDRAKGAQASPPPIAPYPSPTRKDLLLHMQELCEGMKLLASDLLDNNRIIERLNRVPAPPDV
Outline: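 Activity was measured as mobility-shift separation of phosphorylated from unphosphorylated substrate on a LabChip EZ Reader. Compound was titrated from 30 uM final in 10 points, 1:4 steps, with 1% DMSO, and enzyme plus substrate reacted 90 min at 25° C before stop buffer. Control wells held 10 uM staurosporine.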

SMILES | pIC50 [1] | pIC50 [2]
COc1cc(C(=O)N(C)C)ccc1-c1cc2ncc(Cl)c(-c3ccc(OC4CCOCC4)c(C#N)c3)c2o1 [Compound 265, 4-(6-chloro-7-(3-cyano-4-(tetrahydro-2H-pyran-4-yloxy)phenyl)furo[3,2-b]pyridin-2-yl)-3-methoxy-N,N-dimethylbenzamide] | 6.00 to 7.00 | 6.00 to 7.00
COc1cc(C(=O)N(C)C)ccc1-c1cc2ncc(Cl)c(-c3ccc(NC4CCOCC4)c(C#N)c3)c2o1 [Compound 266, 4-(6-chloro-7-(3-cyano-4-(tetrahydro-2H-pyran-4-ylamino)phenyl)furo[3,2-b]pyridin-2-yl)-3-methoxy-N,N-dimethylbenzamide] | 6.00 to 7.00 | 6.00 to 7.00
CN(CCO)C(=O)c1ccc(-c2cc3ncc(Cl)c(-c4ccc(OC5CCOCC5)c(C#N)c4)c3o2)c(F)c1 [Compound 267, 4-(6-chloro-7-(3-cyano-4-(tetrahydro-2H-pyran-4-yloxy)phenyl)furo[3,2-b]pyridin-2-yl)-3-fluoro-N-(2-hydroxyethyl)-N-methylbenzamide] | 5.30 to 6.00 | < 5.30
COc1cc(C(=O)N(C)CCO)ccc1-c1cc2ncc(C)c(-c3ccc(NC4CCOCC4)c(C#N)c3)c2o1 [Compound 268, 4-(7-(3-cyano-4-(tetrahydro-2H-pyran-4-ylamino)phenyl)-6-methylfuro[3,2-b]pyridin-2-yl)-N-(2-hydroxyethyl)-3-methoxy-N-methylbenzamide] | 6.00 to 7.00 | 6.00 to 7.00
COc1cc(C(=O)N(C)C)ccc1-c1cc2ncc(C)c(-c3ccc(OC4CCOCC4)c(C#N)c3)c2o1 [Compound 269, 4-(7-(3-cyano-4-(tetrahydro-2H-pyran-4-yloxy)phenyl)-6-methylfuro[3,2-b]pyridin-2-yl)-3-methoxy-N,N-dimethylbenzamide hydrochloride] | 6.00 to 7.00 | 6.00 to 7.00
COc1cc(C(=O)N(C)C)cnc1-c1cc2nccc(-c3ccc(NC4CCOCC4)c(C#N)c3)c2o1 [Compound 270, 6-(7-(3-cyano-4-(tetrahydro-2H-pyran-4-ylamino)phenyl)furo[3,2-b]pyridin-2-yl)-5-methoxy-N,N-dimethylnicotinamide hydrochloride] | > 7.00 | > 7.00
COc1nc(C(=O)N(C)C)ccc1-c1cc2nccc(-c3ccc(OC4CCOCC4)c(C#N)c3)c2o1 [Compound 271, 5-(7-(3-cyano-4-(tetrahydro-2H-pyran-4-yloxy)phenyl)furo[3,2-b]pyridin-2-yl)-6-methoxy-N,N-dimethylpicolinamide] | > 7.00 | > 7.00
COc1cc(C(=O)N(C)C)cnc1-c1cc2nccc(-c3ccc(OC4CCOCC4)c(C#N)c3)c2o1 [Compound 274, 6-(7-(3-cyano-4-(tetrahydro-2H-pyran-4-yloxy)phenyl)furo[3,2-b]pyridin-2-yl)-5-methoxy-N,N-dimethylnicotinamide hydrochloride] | > 7.00 | > 7.00
CN(C)C(=O)c1ccc(-c2cc3nccc(-c4ccc(C5(N6CCOCC6)CC5)c(C#N)c4)c3o2)cc1 [Compound 287, 4-(7-[3-cyano-4-[1-(morpholin-4-yl)cyclopropyl]phenyl]furo[3,2-b]pyridin-2-yl)-N,N-dimethylbenzamide hydrochloride] | < 5.30 | < 5.30
COc1cc(C(=O)N(C)CCO)ccc1-c1cc2ncc(C3CC3)c(-c3ccc(NC4CCOCC4)c(C#N)c3)c2o1 [Compound 305, 4-(7-[3-cyano-4-[(oxan-4-yl)amino]phenyl]-6-cyclopropylfuro[3,2-b]pyridin-2-yl)-N-(2-hydroxyethyl)-3-methoxy-N-methylbenzamide] | < 5.30 | < 5.30
COc1cc(C(=O)N(C)CCO)ccc1-c1cc2ncc(C3CC3)c(-c3ccc(OC4CCOCC4)c(C#N)c3)c2o1 [Compound 306, 4-(7-(3-cyano-4-(tetrahydro-2H-pyran-4-yloxy)phenyl)-6-cyclopropylfuro[3,2-b]pyridin-2-yl)-N-(2-hydroxyethyl)-3-methoxy-N-methylbenzamide] | < 5.30 | < 5.30
COc1cc(C(=O)N(C)C)ccc1-c1cc2nccc(-c3cc(C#N)c(OC4CCOCC4)c(C4CC4)c3)c2o1 [Compound 307, 4-(7-(3-cyano-5-cyclopropyl-4-(tetrahydro-2H-pyran-4-yloxy)phenyl)furo[3,2-b]pyridin-2-yl)-3-methoxy-N,N-dimethylbenzamide] | 6.00 to 7.00 | 6.00 to 7.00
COc1cc(C(=O)N(C)C)ccc1-c1cc2nccc(-c3cc(C#N)c(NC4CCOCC4)c(C4CC4)c3)c2o1 [Compound 308, 4-(7-(3-cyano-5-cyclopropyl-4-(tetrahydro-2H-pyran-4-ylamino)phenyl)furo[3,2-b]pyridin-2-yl)-3-methoxy-N,N-dimethylbenzamide] | < 5.30 | < 5.30
COc1cc(C(=O)N(C)C)cnc1-c1cc2ncc(C)c(-c3ccc(NC4CCOCC4)c(C#N)c3)c2o1 [Compound 319, 6-(7-(3-cyano-4-(tetrahydro-2H-pyran-4-ylamino)phenyl)-6-methylfuro[3,2-b]pyridin-2-yl)-5-methoxy-N,N-dimethylnicotinamide] | 5.30 to 6.00 | 5.30 to 6.00
COc1cc(C(=O)N(C)C)cnc1-c1cc2ncc(C)c(-c3ccc(OC4CCOCC4)c(C#N)c3)c2o1 [Compound 320, 6-(7-(3-cyano-4-(tetrahydro-2H-pyran-4-yloxy)phenyl)-6-methylfuro[3,2-b]pyridin-2-yl)-5-methoxy-N,N-dimethylnicotinamide] | 5.30 to 6.00 | 5.30 to 6.00
COc1cc(C(=O)N(C)C)cnc1-c1cc2ncc(C)c(-c3ccc(OC4CCOCC4)c(C#N)n3)c2o1 [Compound 321, 6-[7-[6-cyano-5-(oxan-4-yloxy)pyridin-2-yl]-6-methylfuro[3,2-b]pyridin-2-yl]-5-methoxy-N,N-dimethylpyridine-3-carboxamide hydrochloride] | 6.00 to 7.00 | 6.00 to 7.00
COc1cc(C(=O)N(C)C)cnc1-c1cc2ncc(C3CC3)c(-c3ccc(OC4CCOCC4)c(C#N)c3)c2o1 [Compound 323, 6-(7-(3-cyano-4-(tetrahydro-2H-pyran-4-yloxy)phenyl)-6-cyclopropylfuro[3,2-b]pyridin-2-yl)-5-methoxy-N,N-dimethylnicotinamide] | < 5.30 | < 5.30
COc1cc(C(=O)N(C)CCO)cnc1-c1cc2ncc(C)c(-c3ccc(OC4CCOCC4)c(C#N)c3)c2o1 [Compound 330, 6-(7-(3-cyano-4-(tetrahydro-2H-pyran-4-yloxy)phenyl)-6-methylfuro[3,2-b]pyridin-2-yl)-N-(2-hydroxyethyl)-5-methoxy-N-methylnicotinamide] | 5.30 to 6.00 | 5.30 to 6.00
COc1cc(C(=O)N(C)CCO)cnc1-c1cc2ncc(C(C)C)c(-c3ccc(OC4CCOCC4)c(C#N)c3)c2o1 [Compound 333, 6-[7-[3-cyano-4-(oxan-4-yloxy)phenyl]-6-(propan-2-yl)furo[3,2-b]pyridin-2-yl]-N-(2-hydroxyethyl)-5-methoxy-N-methylpyridine-3-carboxamide] | < 5.30 | < 5.30
COc1cc(C(=O)N(C)C)cnc1-c1cc2ncc(Cl)c(-c3ccc(OC4CCOCC4)c(C#N)c3)c2o1 [Compound 336, 6-[6-chloro-7-[3-cyano-4-(oxan-4-yloxy)phenyl]furo[3,2-b]pyridin-2-yl]-5-methoxy-N,N-dimethylpyridine-3-carboxamide hydrochloride] | 5.30 to 6.00 | 5.30 to 6.00
